Data: US9085531B2 (priority 2004, dated 2015)
Structures can show the parent of a compound that is named as a salt.

How the values were obtained:
[1] = system: tetrabenazine-induced exploratory loss and ptosis in mice; experiment: Tetrabenazine assay; details: mouse, in vivo

SMILES: CN1Cc2cc(-c3cccnn3)ccc2C(c2cc3ccccc3s2)C1 (stereo not shown) (as salt: maleate)
- melting point: 100 to 104 °C

SMILES: CN1Cc2ccccc2C(C2=Cc3ccccc3CCC2)C1 (stereo not shown) (as salt: maleate)
- melting point: 178 to 180 °C

SMILES: CN1Cc2c(N)cccc2C(c2ccccc2)C1 (stereo not shown) [Nomifensine]
- activity in the tetrabenazine assay [1]: potent biological activity

SMILES: COC(=O)C(c1ccccc1)C1CCCCN1.Cl (stereo not shown) [Ritalin®]
- activity in the tetrabenazine assay [1]: potent activity
